Values after ≈ are worked out from the molar mass of the structure shown. Numbered stars: 1 amine (or outer) side, 2 acyl side, 3 side chain; on linkers, the order of the positions; unused ones are H or OH. Bridge positions count the residues as written; N and C are the ends. Square brackets hold non-standard residues; d marks the D form. Peptide text beside a SMILES is read from it. * marks the point of attachment. X3 = O=C([C@@H](Cc1ccc(CS(=O)(=O)O)cc1)N[*:1])[*:2]; X2 = O=C([C@H](CNCS(=O)(=O)O)N[*:1])[*:2]; Heptanoyl(6-Me) = CC(C)CCCCC(=O)*; dOrn = NCCC[C@@H](N)C(=O)O; X1 = CC[C@H](C)CCCCC(=O)*; dDab = NCC[C@@H](N)C(=O)O; Heptanoyl = CCCCCCC(=O)*; Octanoyl = CCCCCCCC(=O)*; Orn = NCCC[C@H](N)C(=O)O; Dab = NCC[C@H](N)C(=O)O; Dap = NC[C@H](N)C(=O)O
Legend:
Type in all cases: cell-based
[1] = Nephrotoxicity assay: in vitro cytotoxicity of HK-2 cells by CCK-8 assay; conditions: human, HK-2 cells (human renal), 72 h incubation with drug-containing medium
Outline: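 HK-2 human renal cells in RPMI-1640 with 10% FBS were exposed to compounds at final 12.5–500 µg/mL for 72 h, then CCK-8 for 3 h and OD450 read. Viability was normalised to drug-free wells; IC50 came from logarithmic regression over three repeats, with polymyxin B as positive drug.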

[2] = system: Klebsiella pneumoniae ATCC BAA-1705 (KPC); conditions: ATCC BAA-1705
Outline: (§1)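 Minimal inhibitory concentrations are measured following CLSI microdilution guidance in MH broth. Test concentrations run from 64 down to 0.03 mg/L in doubling steps, with a final bacterial load of (2-4) × 10^5 CFU/mL and 16-20 h incubation at 35-37°C.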

[3] = system: Escherichia coli ATCC BAA-2340 (KPC); conditions: ATCC BAA-2340
Outline: as §1

[4] = system: Klebsiella pneumoniae KPN+19-15; conditions: KPN+19-15
Outline: as §1

[5] = system: Pseudomonas aeruginosa ATCC 27853; conditions: ATCC 27853
Outline: as §1

[6] = system: Acinetobacter baumannii NCTC 13304 (OXA-27); conditions: NCTC 13304
Outline: as §1

[7] = system: Escherichia coli ATCC BAA-2523; conditions: ATCC BAA-2523
Outline: as §1

[8] = system: Acinetobacter baumannii ABA19-1; conditions: ABA19-1
Outline: as §1

[9] = system: Pseudomonas aeruginosa PAE19-3; conditions: PAE19-3
Outline: as §1

SMILES | IC50 at 72 h [1] | MIC [2] | MIC [3] | MIC [4] | MIC [5] | MIC [6] | MIC [7] | MIC [8] | MIC [9]
CC(C)CCCCC(=O)N[C@@H](CCN)C(=O)N[C@H](C(=O)N[C@H](CCN)C(=O)N[C@H]1CCNC(=O)[C@H]([C@@H](C)O)NC(=O)[C@H](CCN)NC(=O)[C@H](CCN)NC(=O)[C@H]([C@@H](C)O)NC(=O)[C@@H](Cc2ccccc2)NC(=O)[C@H](CCN)NC1=O)[C@@H](C)O [Compound 12, 6-methylheptanoyl-Dab-Thr-D-Dab-ring(4-10)[Dab-Dab-D-Phe-Thr-Dab-Dab-Thr]] ({Heptanoyl(6-Me)}-[Dab]T[dDab][Dab][Dab][dF]T[Dab][Dab]T; lactam 4-C) | > 500 µg/mL | 0.125 µg/mL (≈ 0.106 µM) | ≤0.03 µg/mL | ≤0.03 µg/mL | 0.5 µg/mL (≈ 0.425 µM) | ≤0.03 µg/mL | ≤0.03 µg/mL | 0.06 µg/mL (≈ 0.051 µM) | 0.5 µg/mL (≈ 0.425 µM)
CC(C)CCCCC(=O)N[C@@H](CCN)C(=O)N[C@H](C(=O)N[C@H](CO)C(=O)N[C@H]1CCNC(=O)[C@H]([C@@H](C)O)NC(=O)[C@H](CCN)NC(=O)[C@H](CCN)NC(=O)[C@H]([C@@H](C)O)NC(=O)[C@@H](Cc2ccc(CS(=O)(=O)O)cc2)NC(=O)[C@H](CCN)NC1=O)[C@@H](C)O [Compound 107, 6-methylheptanoyl-Dab-Thr-D-Ser-ring(4-10)[Dab-Dab-D-Phe(4-CH2SO3H)-Thr-Dab-Dab-Thr]] ({Heptanoyl(6-Me)}-[Dab]T[dS][Dab][Dab][X3]T[Dab][Dab]T; lactam 4-C) | > 500 µg/mL | 0.125 µg/mL (≈ 0.0993 µM) | 0.03 µg/mL (≈ 0.0238 µM) | 0.125 µg/mL (≈ 0.0993 µM) | 0.25 µg/mL (≈ 0.199 µM) | 0.06 µg/mL (≈ 0.0477 µM) | 0.03 µg/mL (≈ 0.0238 µM) | 0.06 µg/mL (≈ 0.0477 µM) | 0.25 µg/mL (≈ 0.199 µM)
CCCCCCC(=O)N[C@@H](CCN)C(=O)N[C@H](C(=O)N[C@H](CO)C(=O)N[C@H]1CCNC(=O)[C@H]([C@@H](C)O)NC(=O)[C@H](CN)NC(=O)[C@H](CCN)NC(=O)[C@H]([C@@H](C)O)NC(=O)[C@@H](Cc2ccccc2)NC(=O)[C@H](CCN)NC1=O)[C@@H](C)O [Compound 84, Heptanoyl-Dab-Thr-D-Ser-ring(4-10)[Dab-Dab-D-Phe-Thr-Dab-Dap-Thr]] (Heptanoyl-[Dab]T[dS][Dab][Dab][dF]T[Dab][Dap]T; lactam 4-C) | > 500 µg/mL | 0.25 µg/mL (≈ 0.22 µM) | 0.25 µg/mL (≈ 0.22 µM) | 0.5 µg/mL (≈ 0.44 µM) | >64 µg/mL | 0.03 µg/mL (≈ 0.0264 µM) | 0.25 µg/mL (≈ 0.22 µM) | 0.06 µg/mL (≈ 0.0528 µM) | 64 µg/mL (≈ 56.3 µM)
CCCCCCCC(=O)N[C@@H](CCN)C(=O)N[C@H](C(=O)N[C@H](CO)C(=O)N[C@H]1CCNC(=O)[C@H]([C@@H](C)O)NC(=O)[C@H](CN)NC(=O)[C@H](CCN)NC(=O)[C@H]([C@@H](C)O)NC(=O)[C@@H](Cc2ccccc2)NC(=O)[C@H](CCN)NC1=O)[C@@H](C)O [Compound 83, Octanoyl-Dab-Thr-D-Ser-ring(4-10)[Dab-Dab-D-Phe-Thr-Dab-Dap-Thr]] (Octanoyl-[Dab]T[dS][Dab][Dab][dF]T[Dab][Dap]T; lactam 4-C) | > 500 µg/mL | 0.25 µg/mL (≈ 0.217 µM) | 0.06 µg/mL (≈ 0.0522 µM) | 0.5 µg/mL (≈ 0.435 µM) | >64 µg/mL | ≤0.03 µg/mL | 0.06 µg/mL (≈ 0.0522 µM) | 0.06 µg/mL (≈ 0.0522 µM) | 64 µg/mL (≈ 55.6 µM)
CC[C@H](C)CCCCC(=O)N[C@@H](CCCN)C(=O)N[C@H](C(=O)N[C@H](CO)C(=O)N[C@H]1CCNC(=O)[C@H]([C@@H](C)O)NC(=O)[C@H](CCN)NC(=O)[C@H](CCN)NC(=O)[C@H]([C@@H](C)O)NC(=O)[C@@H](Cc2ccccc2)NC(=O)[C@H](CCN)NC1=O)[C@@H](C)O [Compound 56, (S)-6-methyloctanoyl-Orn-Thr-D-Ser-ring(4-10)[Dab-Dab-D-Phe-Thr-Dab-Dab-Thr]] (X1-[Orn]T[dS][Dab][Dab][dF]T[Dab][Dab]T; lactam 4-C) | > 500 µg/mL | 0.25 µg/mL (≈ 0.21 µM) | 0.125 µg/mL (≈ 0.105 µM) | 0.5 µg/mL (≈ 0.419 µM) | 64 µg/mL (≈ 53.7 µM) | 0.25 µg/mL (≈ 0.21 µM) | 0.125 µg/mL (≈ 0.105 µM) | 0.25 µg/mL (≈ 0.21 µM) | 4 µg/mL (≈ 3.35 µM)
CC(C)CCCCC(=O)N[C@@H](CCN)C(=O)N[C@H](C(=O)N[C@H](CO)C(=O)N[C@H]1CCNC(=O)[C@H]([C@@H](C)O)NC(=O)[C@H](CN)NC(=O)[C@H](CCN)NC(=O)[C@H]([C@@H](C)O)NC(=O)[C@@H](Cc2ccccc2)NC(=O)[C@H](CCN)NC1=O)[C@@H](C)O [Compound 82, 6-methylheptanoyl-Dab-Thr-D-Ser-ring(4-10)[Dab-Dab-D-Phe-Thr-Dab-Dap-Thr]] ({Heptanoyl(6-Me)}-[Dab]T[dS][Dab][Dab][dF]T[Dab][Dap]T; lactam 4-C) | > 500 µg/mL | 0.25 µg/mL (≈ 0.217 µM) | 0.03 µg/mL (≈ 0.0261 µM) | 0.5 µg/mL (≈ 0.435 µM) | >64 µg/mL | ≤0.03 µg/mL | 0.03 µg/mL (≈ 0.0261 µM) | 0.06 µg/mL (≈ 0.0522 µM) | 64 µg/mL (≈ 55.6 µM)
CCCCCCC(=O)N[C@@H](CCN)C(=O)N[C@H](C(=O)N[C@H](CCCN)C(=O)N[C@H]1CCNC(=O)[C@H]([C@@H](C)O)NC(=O)[C@H](CCN)NC(=O)[C@H](CCN)NC(=O)[C@H](CC(C)C)NC(=O)[C@@H](Cc2ccccc2)NC(=O)[C@H](CCN)NC1=O)[C@@H](C)O [Compound 44, Heptanoyl-Dab-Thr-D-Orn-ring(4-10)[Dab-Dab-D-Phe-Leu-Dab-Dab-Thr]] (Heptanoyl-[Dab]T[dOrn][Dab][Dab][dF]L[Dab][Dab]T; lactam 4-C) | 308 ± 9.7 µg/mL (≈ 259 µM) | 0.06 µg/mL (≈ 0.0504 µM) | 0.06 µg/mL (≈ 0.0504 µM) | 0.125 µg/mL (≈ 0.105 µM) | 0.5 µg/mL (≈ 0.42 µM) | 0.06 µg/mL (≈ 0.0504 µM) | 0.06 µg/mL (≈ 0.0504 µM) | 0.125 µg/mL (≈ 0.105 µM) | 2 µg/mL (≈ 1.68 µM)
CC(C)CCCCC(=O)N[C@@H](CCN)C(=O)N[C@H](C(=O)N[C@H](CCCN)C(=O)N[C@H]1CCNC(=O)[C@H]([C@@H](C)O)NC(=O)[C@H](CCN)NC(=O)[C@H](CCN)NC(=O)[C@H](CC(C)C)NC(=O)[C@@H](Cc2ccccc2)NC(=O)[C@H](CCN)NC1=O)[C@@H](C)O [Compound 42, 6-methylheptanoyl-Dab-Thr-D-Orn-ring(4-10)[Dab-Dab-D-Phe-Leu-Dab-Dab-Thr]] ({Heptanoyl(6-Me)}-[Dab]T[dOrn][Dab][Dab][dF]L[Dab][Dab]T; lactam 4-C) | 316 ± 6.7 µg/mL (≈ 262 µM) | 0.06 µg/mL (≈ 0.0499 µM) | 0.03 µg/mL (≈ 0.0249 µM) | 0.125 µg/mL (≈ 0.104 µM) | 0.25 µg/mL (≈ 0.208 µM) | 0.06 µg/mL (≈ 0.0499 µM) | 0.03 µg/mL (≈ 0.0249 µM) | 0.125 µg/mL (≈ 0.104 µM) | 1 µg/mL (≈ 0.831 µM)
CC(C)CCCCC(=O)N[C@@H](CCN)C(=O)N[C@H](C(=O)N[C@@H](CNCS(=O)(=O)O)C(=O)N[C@H]1CCNC(=O)[C@H]([C@@H](C)O)NC(=O)[C@H](CCN)NC(=O)[C@H](CCN)NC(=O)[C@H]([C@@H](C)O)NC(=O)[C@@H](Cc2ccccc2)NC(=O)[C@H](CCN)NC1=O)[C@@H](C)O [Compound 112, 6-methylheptanoyl-Dab-Thr-Dap(CH2SO3H)-ring(4-10)[Dab-Dab-D-Phe-Thr-Dab-Dab-Thr]] ({Heptanoyl(6-Me)}-[Dab]T[X2][Dab][Dab][dF]T[Dab][Dab]T; lactam 4-C) | > 500 µg/mL | 0.125 µg/mL (≈ 0.0994 µM) | 0.03 µg/mL (≈ 0.0239 µM) | 0.125 µg/mL (≈ 0.0994 µM) | 0.25 µg/mL (≈ 0.199 µM) | 0.06 µg/mL (≈ 0.0477 µM) | 0.03 µg/mL (≈ 0.0239 µM) | 0.06 µg/mL (≈ 0.0477 µM) | 0.25 µg/mL (≈ 0.199 µM)

— patent publication EP4725957A1, “GROUP OF CYCLIC ALKALINE LIPOPEPTIDE COMPOUNDS, AND PREPARATION METHOD THEREFOR AND USE THEREOF” (Institute of Medicinal Biotechnology, Chinese Academy of …, priority 2023, dated 2024)
